One data set concerns SW620 cells. Put plainly: SW620 cell viability assay (Cell Titer Glo). The following applies: 9 serial dilutions between 10 and 0.002 μM, without MEK inhibitor. It is filed as cell-based. How it is done: The present invention also includes combinations of the BRaf inhibitors disclosed in this invention with other agents. In particular, the present invention provides for combinations with MEK1/2 inhibitors. FIG. 1 illustrates that the addition of a MEK small molecule inhibitor can reverse the induced ERK signaling, cell growth and transformation caused by a Raf small molecule inhibitor.
SW620 cells were seeded in 1640 RPMI+10% FBS at a density of 1500 cells per 96-well in black walled, clear bottom tissue culture treated plates. Test compounds were serially diluted in DMSO then added to the cells (final DMSO concentration of 0.1%) and incubated at 37° C. and 5% CO2 for 4 days. To measure cell viability, cell plates were brought to room temperature, culture media was removed, and 200 µl of Cell Titer-Glo reagent (Promega, kit components mixed as per the manufacturer's protocol then diluted 1:2 with growth media) was added to each well. Plates were shaken for 5 minutes, then incubated at room temperature for 5 minutes, and the luminescence was measured (Trilux, Perkin Elmer).

The subject of the next data set is A375 cells. Put plainly: A375 Cellular Proliferation Assay (A375 CP). The conditions noted are these: A375-luc cells, 2 days. It is filed as cell-based. How it is done: A375-luc cells engineered to express luciferase are plated to 384-well white clear bottom plates as 1,500 cells/50 μl/well in DMEM containing 10% FBS. Compounds of the invention dissolved in 100% DMSO at appropriate concentrations are transferred to the cells by a robotic Pin Tool (100 nl). The cells are incubated for 2 days at […], then 25 μl of BrightGlo™ is added to each well and the plates are read by luminescence. The concentration of each compound for 50% inhibition (IC50) was calculated by non-linear regression using XL Fit data analysis software.

Data set [1] is described as follows: Liver microsomal clearance assay, human. The following applies: extraction ratio, human liver microsomes, 1 μM compound. It is filed as in vitro ADME. How it is done:
(§1) Liver Microsomal Clearance Assay
(§2) The in vitro microsomal clearance assay is designed to assess potential risks associated with hepatic metabolic stability of compounds. The test compound (1 μM) was incubated with liver microsomes (0.5 mg/mL) from different species (mouse, rat, monkey, dog and human) and NADPH (1 mM) in 100 mM potassium phosphate buffer at 37° C. At specific reaction time points (0, 5, 10 and 30 minutes), reaction aliquots were removed and reactions were terminated by addition of ice cold acetonitrile containing mass spectrometry internal standard. The samples were centrifuged and the supernatants were analyzed by LC-MS/MS. In vitro metabolic half-life (t1/2, min) and intrinsic clearance (CLint, μL/min/mg) are based on the rate and extent of metabolism of the test compound as determined by the disappearance of the parent compound from the reaction mixture. These values may be scaled to predict hepatic metabolic clearance rate (CLh, mL/min/kg) and extraction ratio (ER, expressed as a ratio of the predicted hepatic metabolic clearance to hepatic blood flow in that species). In general, compounds with high predictedCLint or ER in vitro are considered to be at high risk for exposure-limiting metabolism in vivo.

A short description of data set [2]: Liver microsomal clearance assay, mouse. Type of data set: in vitro ADME. The conditions noted are these: extraction ratio, mouse liver microsomes, 1 μM compound. The protocol: as §1, §2
(In general: Microsomes from liver hold many membrane-bound enzymes, among them those of drug oxidation.)

The nature of data set [3]: In vivo pharmacokinetics assay in mouse. How it is done:
Full pharmacokinetics study: Male Balb/c mice (n=3, body weights 22-25 g) or male Wistar rats (n=3, body weights 250-300 g) were administered the test compound intravenously via the lateral tail vein or orally via gavage. […] Six blood samples of 50 μL each were collected serially for 24 h after dosing. The blood samples were centrifuged to separate the plasma. Plasma samples were analyzed and quantified by LC-MS/MS.
Rapid pharmacokinetics study: Male Balb/c mice (n=3, body weights 22-25 g) or male Wistar rats (n=3, body weights 250-300 g) were administered the test compound intravenously (IV) via the lateral tail vein or orally (PO) via gavage. […] Six blood samples of 50 μL each were collected serially for 24 h after dosing. Blood samples were centrifuged and plasma separated and pooled across the three animals at each time point per dose route. Plasma samples were analyzed and quantified by LC-MS/MS.
For both full and rapid pharmacokinetics studies, the following parameters were calculated by non-compartmental regression analysis using Winnonlin 5.0 software (Pharsight, Mountain View, Calif., USA): plasma clearance (Cl), plasma maximum concentration (Cmax), plasma area-under-the-concentration-time-curve (AUC0-inf) and percent oral bioavailability (F %).

In the case of `COC(=O)N[C@@H](C)CNc1nccc(-c2cn(C(C)C)nc2-c2cc(Cl)cc(NS(C)(=O)=O)c2F)n1` [Compound 9, Methyl N-[(2S)-1-({4-[3-(5-chloro-2-fluoro-3-methanesulfonamidophenyl)-1-(propan-2-yl)-1H-pyrazol-4-yl]pyrimidin-2-yl}amino)propan-2-yl]carbamate], in the data set on SW620 cells, the “cellular proliferation (Cell Titer Glo, FIG. 1)” value is on record as “induction in cellular proliferation”.
One may read the IC50 as the point on the concentration scale where inhibition reaches its midpoint. A higher IC50 goes with lower potency. As a reminder, the Cmax is the highest concentration seen after dosing. In the case of “methyl N-[(2S)-1-[(4-{3-[2-fluoro-3-(propane-1-sulfonamido)phenyl]-1-(propan-2-yl)-1H-pyrazol-4-yl}pyrimidin-2-yl)amino]propan-2-yl]carbamate [Compound 3]”, in the data set on A375 cells, the IC50 was found to be 2 nM. For the same compound, the “ER Human” value in data set [1] is listed as 0.69. Besides, in data set [2], the “ER Mouse” value is reported as 0.85. Further, in data set [3] (PO 5 mg/kg, n = 1), the Cmax is 70 nM and the “PO AUC” value was 0.20 (n = 1) hrs*μM. Also, in data set [3] (PO/IV 5/2 mg/kg, n = 1), the F is recorded as 6 (n = 1) %. Also, the Cl in data set [3] (plasma clearance, IV 2 mg/kg) is 51 (n = 1) mL/min/kg.
